According to patent publication US20260183411A1, “TARGETING SORTILIN” (priority 2024, published 2026):
Where two headings read alike, the source gives them in different places. Where a SMILES comes first, the peptide text is derived from it. [ ]: non-standard residue; d: D form. The star is where a group is joined. Dolaproine = CO[C@@H]([C@@H]1CCCN1)[C@@H](C)C(=O)O; Dil = CC[C@H](C)[C@H](NC)[C@@H](CC(=O)O)OC; X1 = C[C@@H](N*)[C@@H](O)c1ccccc1; NMeV = CN[C@H](C(=O)O)C(C)C

Legend:
[1] = Murine serum stability assay; type: in vitro ADME, mouse; details: read-out: Murine serum stability assay, T1/2
Protocol: Serum was drawn from male CD-1 mice by Pharmidex. Lyophilized peptides were solubilized in DMSO and then further diluted into male mouse (CD-1) serum at 37° C. in duplicates. The reaction was incubated at 37° C. and samples extracted at 6 time points: 0, 0.16, 0.5, 1, 3, and 6 hrs. Acetonitrile (ACN) with an internal standard (tolbutamide) was added to stop the incubation. Samples were centrifuged, and the supernatant was analyzed by HPLC-MS/MS for the parent compound.

[2] = test system: MDA-MB-231 xenograft; assay: MDA-MB-231 murine xenograft efficacy model; type: in vivo, mouse
Protocol: Murine xenograft experiments were conducted at WuXi AppTec and/or Charles River Laboratories and the care and use of animals was conducted in accordance with the regulations of the Association for Assessment and Accreditation of Laboratory Animal Care (AAALAC). MDA-MB-231 tumor cells (ATCC, Manassas, VA, cat #HTB-26) were grown and maintained in L15 medium supplemented with 10% heat inactivated fetal bovine serum, 1% Antibiotic-Antimycotic, and L-glutamine (2 mM) at 37° C. in an atmosphere in 5% CO2, 95% air. BALB/c Nude, female, 6-8 weeks, weighing approximately 18-22 g were purchased from Vital River Laboratory Animal Technology Co., LTD. Mice were inoculated subcutaneously at the right flank with MDA-MB-231 tumor cells (e.g., triple negative breast cancer cells) (10×10^6) in 0.2 mL of PBS with Matrigel (1:1) for tumor development. Animals were randomized and treatment was started when the average tumor volume reached approximately 150-200 mm^3 for the efficacy study. Dosing volume was adjusted based on body weight and was administered at 10 mL/Kg. […] Free MMAE payload was also tested, and similarly dissolved in 25 mM Histidine 10% sucrose pH 7 and one or more of the following doses, 0.6, 0.06 mg/kg, were administered to the mice i.v. at a QW×4 schedule. Tumor sizes were measured twice weekly in two dimensions using a caliper, and the volume in mm^3 calculated using the formula: V=0.5 a×b^2, where a and b are the long and short diameters of the tumor, respectively. TGI was calculated for each group using the formula: TGI (%)=[1−(Ti−T0)/(Vi−V0)]×100; where Ti is the average tumor volume of a treatment group on a given day, TO is the average tumor volume of the treatment group on the first day of treatment, Vi is the average tumor volume of the vehicle control group on the same day with Ti, and V0 is the average tumor volume of the vehicle group on the first day of treatment.
To characterize the effects of the MMAE payload alone, we included free MMAE at molar equivalency to PDCs, and tested at 0.6 and 0.06 mg/kg, as separate arms.
To characterize the effects of the MMAE payload alone, we included free MMAE at molar equivalency to PDCs, and tested at 0.6 mg/kg.

[3] = male, CD-1, mouse, mouse serum, linear peptides, Table 11
[4] = mouse, serum, linear peptides, Table 11
[5] = male, CD-1, mouse, mouse serum, cyclic peptides, Table 12
[6] = mouse, serum, cyclic peptides, Table 12

For `CC(C)CC[C@H](NC(=O)[C@H](CCC(N)=O)NC(=O)[C@H](CCCNC(=N)N)NC(=O)[C@H](CC(C)C)NC(=O)[C@H](C)NC(=O)[C@@H]1CCCN1C(=O)[C@H](CC(=O)O)NC(=O)[C@H](CCCNC(=N)N)NC(=O)[C@H](CC(C)C)NC(=O)[C@@H]1CCCN1C(=O)[C@H](C)NC(=O)[C@H](CC(=O)O)NC(=O)[C@H](Cc1c[nH]c2ccccc12)NC(=O)[C@H](CCCNC(=N)N)NC(=O)[C@@H]1CCCN1C(=O)[C@H](C)N)C(=O)N[C@@H](CC(C)(C)C)C(=O)O` [Arb-SAR-P17], which half-life [1, 3] is on record?
The half-life was 12.1 min.

With `CC(C)C[C@H](NC(=O)[C@H](C)NC(=O)[C@@H]1CCCN1C(=O)[C@H](CC(=O)O)NC(=O)[C@H](CCCNC(=N)N)NC(=O)[C@H](CC(C)C)NC(=O)[C@@H]1CCCN1C(=O)[C@H](C)NC(=O)[C@H](CC(=O)O)NC(=O)[C@H](Cc1c[nH]c2ccccc12)NC(=O)[C@H](CCCNC(=N)N)NC(=O)[C@@H]1CCCN1C(=O)[C@H](C)N)C(=O)N[C@@H](CCCNC(=N)N)C(=O)N[C@@H](CCC(N)=O)C(=O)N[C@@H](CC(C)(C)C)C(=O)N[C@@H](CC(C)(C)C)C(=O)O` [Arb-SAR-P22] as the compound, how does the half-life [1, 4] read?
The half-life was 9.95 min.

Which half-life [1, 3] does the source give for `CC(C)C[C@H](NC(=O)[C@H](C)NC(=O)[C@@H]1CCCN1C(=O)[C@H](CC(=O)O)NC(=O)[C@H](CCCNC(=N)N)NC(=O)[C@H](CC(C)C)NC(=O)[C@@H]1CCCN1C(=O)[C@H](C)NC(=O)[C@H](CC(=O)O)NC(=O)[C@H](Cc1c[nH]c2ccccc12)NC(=O)[C@H](CCCNC(=N)N)NC(=O)[C@@H]1CCCN1C(=O)[C@H](C)N)C(=O)N[C@@H](CCCNC(=N)N)C(=O)N[C@@H](CCC(N)=O)C(=O)N[C@@H](CC1CCC1)C(=O)N[C@@H](CC(C)(C)C)C(=O)O` [Arb-SAR-P24] here?
Its half-life is 10.1 min.

With `CC(C)CC[C@H](NC(=O)[C@H](CCC(N)=O)NC(=O)[C@H](CCCNC(=N)N)NC(=O)[C@H](CC(C)C)NC(=O)[C@H](C)NC(=O)[C@@H]1CCCN1C(=O)[C@H](CC(=O)O)NC(=O)[C@H](CCCNC(=N)N)NC(=O)[C@H](CC(C)C)NC(=O)[C@@H]1CCCN1C(=O)[C@H](C)NC(=O)[C@H](CC(=O)O)NC(=O)[C@H](Cc1c[nH]c2ccccc12)NC(=O)[C@H](CCCNC(=N)N)NC(=O)[C@@H]1CCCN1C(=O)[C@H](C)N)C(=O)N[C@@H](CC1CCC1)C(=O)O` [Arb-SAR-Q09] as the compound, how does the half-life [1, 4] read?
The half-life was 11.5 min.

With `CC(C)C[C@H](NC(=O)[C@H](C)NC(=O)[C@@H]1CCCN1C(=O)[C@H](CC(=O)O)NC(=O)[C@H](CCCNC(=N)N)NC(=O)[C@H](CC(C)C)NC(=O)[C@@H]1CCCN1C(=O)[C@H](C)NC(=O)[C@H](CC(=O)O)NC(=O)[C@H](Cc1c[nH]c2ccccc12)NC(=O)[C@H](CCCNC(=N)N)NC(=O)[C@@H]1CCCN1C(=O)[C@H](C)N)C(=O)N[C@@H](CCCNC(=N)N)C(=O)N[C@@H](CCC(N)=O)C(=O)N[C@H](C(=O)N[C@@H](CC1CCC1)C(=O)O)C(C)(C)C` [Arb-SAR-Q15] as the compound, how does the half-life [1, 3] read?
Its half-life is 16.9 min.

For `CCCC[C@@H]1NC(=O)[C@@H](NC(=O)[C@H](CCC(N)=O)NC(=O)[C@H](C)NC(C)=O)CSSC[C@@H](C(=O)N[C@@H](CCCNC(=N)N)C(=O)N[C@@H](CCC(N)=O)C(=O)N[C@H](C(=O)N[C@@H](CC(C)(C)C)C(=O)O)C(C)(C)C)NC(=O)[C@H](C)NC(=O)[C@H](CCCNC(=N)N)NC(=O)[C@H](CC(N)=O)NC(=O)[C@H](CCCNC(=N)N)NC(=O)CNC1=O` [Arb_cyclic_C5], which half-life [1, 5] is on record?
The half-life was 46.1 min.

For `CC(=O)N[C@@H](Cc1c[nH]cn1)C(=O)N[C@@H](CC(N)=O)C(=O)N[C@@H](Cc1ccccc1)C(=O)N[C@@H](Cc1ccc(O)cc1)C(=O)N[C@H]1CSSC[C@@H](C(=O)N[C@@H](CCC(N)=O)C(=O)N[C@@H](CCCNC(=N)N)C(=O)N[C@@H](CCC(N)=O)C(=O)N[C@H](C(=O)N[C@@H](CC(C)(C)C)C(=O)O)C(C)(C)C)NC(=O)[C@H](Cc2c[nH]cn2)NC(=O)[C@H](CCCCN)NC(=O)[C@H](CCCNC(=N)N)NC1=O` [Arb_cyclic_C22], which half-life [1, 6] is on record?
Its half-life is 58.3 min.

For `CC(=O)N[C@@H](CCC(=O)O)C(=O)N[C@@H](Cc1c[nH]c2ccccc12)C(=O)N[C@H]1CSSC[C@@H](C(=O)N[C@@H](CCCNC(=N)N)C(=O)N[C@@H](CCC(N)=O)C(=O)N[C@H](C(=O)N[C@@H](CC(C)(C)C)C(=O)O)C(C)(C)C)NC(=O)[C@H]([C@@H](C)O)NC(=O)[C@@H]2CCCN2C(=O)[C@H](Cc2c[nH]cn2)NC(=O)[C@H](CC(N)=O)NC(=O)[C@H](Cc2c[nH]cn2)NC(=O)[C@H](CC(C)C)NC(=O)CNC1=O` [Arb_cyclic_F3], which half-life [1, 5] is on record?
Its half-life is 173 min.

For `CC(=O)N[C@@H](CCCNC(=N)N)C(=O)N[C@@H](CC(=O)O)C(=O)N[C@H]1CSSC[C@@H](C(=O)N[C@@H](CCCNC(=N)N)C(=O)N[C@@H](CCC(N)=O)C(=O)N[C@H](C(=O)N[C@@H](CC(C)(C)C)C(=O)O)C(C)(C)C)NC(=O)[C@@H]2CCCN2C(=O)[C@@H]2CCCN2C(=O)[C@H](C)NC(=O)[C@H](CCCNC(=N)N)NC(=O)[C@H](CC(C)C)NC(=O)[C@H](CO)NC(=O)[C@H](C)NC1=O` [Arb_cyclic_G2], which half-life [1, 5] is on record?
The half-life was 30.8 min.

Which half-life [1, 6] does the source give for `CCCC[C@H](NC(=O)[C@H](CCCNC(=N)N)NC(C)=O)C(=O)N[C@H]1CSSC[C@@H](C(=O)N[C@@H](CCCNC(=N)N)C(=O)N[C@@H](CCC(N)=O)C(=O)N[C@H](C(=O)N[C@@H](CC(C)(C)C)C(=O)O)C(C)(C)C)NC(=O)[C@H](C)NC(=O)[C@@H]2CCCN2C(=O)[C@H](CO)NC(=O)[C@H](CCCNC(=N)N)NC(=O)[C@H]([C@@H](C)CC)NC(=O)[C@@H]2CCCN2C(=O)CNC1=O` [Arb_cyclic_G10] here?
Its half-life is 11.2 min.

With `CCCC[C@@H]1NC(=O)[C@H](CCCNC(=N)N)NC(=O)[C@H](CCCNC(=N)N)NC(=O)[C@H]([C@@H](C)O)NC(=O)[C@H]([C@@H](C)O)NC(=O)[C@@H](NC(=O)[C@H](CO)NC(=O)[C@H](CCCNC(=N)N)NC(C)=O)CSSC[C@@H](C(=O)N[C@@H](CCCNC(=N)N)C(=O)N[C@@H](CCC(N)=O)C(=O)N[C@H](C(=O)N[C@@H](CC(C)(C)C)C(=O)O)C(C)(C)C)NC(=O)[C@H]([C@@H](C)O)NC(=O)[C@H](C)NC1=O` [Arb_cyclic_G14, RSCTTRR(Nle)ATCRQ(B13)(F02)] (HELM PEPTIDE1{[ac].R.S.C.T.T.R.R.[Nle].A.T.C.R.Q.[CC(C)(C)[C@H](N[*:1])C(=O)[*:2]].[CC(C)(C)C[C@H](N[*:1])C(=O)O]}$PEPTIDE1,PEPTIDE1,4:R3-12:R3$$$V2.0) as the compound, how does the half-life [1, 6] read?
The half-life was 50.3 min.

Which half-life [1, 5] does the source give for `CCCC[C@@H]1NC(=O)[C@H](CCCNC(=N)N)NC(=O)[C@H](CCCNC(=N)N)NC(=O)[C@H](CC(N)=O)NC(=O)[C@H](CCC(=O)O)NC(=O)[C@@H](NC(=O)[C@H](Cc2c[nH]c3ccccc23)NC(=O)[C@H](CCCNC(=N)N)NC(C)=O)CSSC[C@@H](C(=O)N[C@@H](CCCNC(=N)N)C(=O)N[C@@H](CCC(N)=O)C(=O)N[C@H](C(=O)N[C@@H](CC(C)(C)C)C(=O)O)C(C)(C)C)NC(=O)[C@H]([C@@H](C)O)NC(=O)[C@H](Cc2ccccc2)NC1=O` [Arb_cyclic_G23, RWCENRR(Nle)FTCRQ(B13)(F02)] here?
Its half-life is 39.1 min.

For `CC[C@H](C)[C@@H]([C@@H](CC(=O)N1CCC[C@H]1[C@H](OC)[C@@H](C)C(=O)N[C@H](C)[C@@H](O)c1ccccc1)OC)N(C)C(=O)[C@@H](NC(=O)[C@@H](NC)C(C)C)C(C)C` [Free MMAE, Monomethyl auristatin E, reference compound] (H-[NMeV]V[Dil][Dolaproine]-X1; N-terminus and C-terminus assumed), which “body weight variation (Example 6)” value ([2]; PDC at each dose, free MMAE at equivalency to 3 mg/kg PDC) is on record?
Its value is “body weight fluctuations corresponding to treatment times”.

And the “body weight loss (Example 8)” value ([2]; PDCs 3 mg/kg, free MMAE at molar equivalency (0.6 mg/kg))?
The value was “body weight fluctuations corresponding to treatment times”.
